The subject of the assay is mouse colon cancer Colon26. The assay is described as follows: Anti-tumor effect on mice transplanted with the mouse colon cancer Colon26. It is filed as in vivo. As to conditions: 5 consecutive days, female CDF1 mice. The text has this: Tumor of mouse colon cancer, Colon26, maintained by serial subcutaneous subculture in BALB/cA mice, was minced into about 2-mm square blocks, and the blocks were transplanted subcutaneously on the dorsal part of a female CDF1 mice with a trocar. On the 7th day after tumor transplantation, the high-molecular weight conjugate of a resorcinol derivative (compound 1) of the present invention, and as a control, the included resorcinol derivative, 5-(2,4-dihydroxy-5-isopropyl-phenyl)-4-(4-methoxy-phenyl)-2,4-dihydro-[1,2,4]triazol-3-one), were administered intravenously to the mouse tail vein. Compound 1 of the present invention was dissolved in a 5% glucose injectable solution, and was administered once. The resorcinol derivative (the included compound) used as the control, was dissolved in DMSO, and TWEEN80 was added thereto, and then the mixture was diluted with a 5% glucose injectable solution. The dilution was administered once a day for 5 consecutive days. After the administration, the major diameter (L mm) and the minor diameter (W mm) of the tumor were measured regularly, and the tumor volume was calculated by the formula: (L×W^2)/2. Based on the tumor volume of the administration initiation day, the average relative tumor volume for each measurement day was determined (Table 1).

As for `COc1ccc(-n2c(-c3cc(C(C)C)c(O)cc3O)n[nH]c2=O)cc1` [Included compound, 5-(2,4-dihydroxy-5-isopropyl-phenyl)-4-(4-methoxy-phenyl)-2,4-dihydro-[1,2,4]triazol-3-one], the “average relative tumor volume” value by setting is: (day 0 after administration, 50 mg/kg/day i.v.) 1.0; (day 0 after administration, 100 mg/kg/day i.v.) 1.0; (day 2 after administration, 50 mg/kg/day i.v.) 1.6; (day 2 after administration, 100 mg/kg/day i.v.) 1.1; (day 3 after administration, 50 mg/kg/day i.v.) 1.6; (day 3 after administration, 100 mg/kg/day i.v.) 0.7. The “average relative tumor volume” value by setting is: (day 5 after administration, 50 mg/kg/day i.v.) 2.5; (day 5 after administration, 100 mg/kg/day i.v.) 1.0; (day 7 after administration, 50 mg/kg/day i.v.) 2.5; (day 7 after administration, 100 mg/kg/day i.v.) 3.3; (day 9 after administration, 50 mg/kg/day i.v.) 6.7; (day 9 after administration, 100 mg/kg/day i.v.) 5.0. For the same compound, the “average relative tumor volume” value (day 12 after administration, 50 mg/kg/day i.v.) is listed as 10; the “average relative tumor volume” value (day 12 after administration, 100 mg/kg/day i.v.) came to 11; the “average relative tumor volume” value (day 14 after administration, 50 mg/kg/day i.v.) was 13; the “average relative tumor volume” value (day 14 after administration, 100 mg/kg/day i.v.) is 12.

The values above are taken from US20160279164A1, “High-Molecular Weight Conjugate Of Resorcinol Derivatives” (Nippon Kayaku Kabushiki Kaisha, priority 2006, published 2016).
